Measurements reported in PubChem BioAssay (NCI).
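Five compound concentrations were applied to cells in 96-well plates for 48 hours; endpoints were derived by simple linear interpolation of the resulting dose-response curve. Definition used: TGI = concentration required for complete inhibition of growth.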

Experiments:
Assay in all cases: NCI-60 cell line screen, 48 h
786-0 renal = test system: 786-0 renal
A498 renal = test system: A498 renal
A549 NSCLC = test system: A549 NSCLC
ACHN renal = test system: ACHN renal
BT-549 breast = test system: BT-549 breast
CCRF-CEM leukemia = test system: CCRF-CEM leukemia
EKVX NSCLC = test system: EKVX NSCLC
HCC-2998 colon = test system: HCC-2998 colon
HL-60(TB) leukemia = test system: HL-60(TB) leukemia
HOP-62 NSCLC = test system: HOP-62 NSCLC
HOP-92 NSCLC = test system: HOP-92 NSCLC
M14 melanoma = test system: M14 melanoma
MOLT-4 leukemia = test system: MOLT-4 leukemia
OVCAR-8 ovarian = test system: OVCAR-8 ovarian
SF-268 CNS = test system: SF-268 CNS
SK-MEL-5 melanoma = test system: SK-MEL-5 melanoma
SK-OV-3 ovarian = test system: SK-OV-3 ovarian
T-47D breast = test system: T-47D breast
UACC-257 melanoma = test system: UACC-257 melanoma
UACC-62 melanoma = test system: UACC-62 melanoma

Structure (SMILES) | TGI (786-0 renal) | TGI (A498 renal) | TGI (A549 NSCLC) | TGI (ACHN renal) | TGI (BT-549 breast) | TGI (CCRF-CEM leukemia) | TGI (EKVX NSCLC) | TGI (HCC-2998 colon) | TGI (HL-60(TB) leukemia) | TGI (HOP-62 NSCLC) | TGI (HOP-92 NSCLC) | TGI (M14 melanoma) | TGI (MOLT-4 leukemia) | TGI (OVCAR-8 ovarian) | TGI (SF-268 CNS) | TGI (SK-MEL-5 melanoma) | TGI (SK-OV-3 ovarian) | TGI (T-47D breast) | TGI (UACC-257 melanoma) | TGI (UACC-62 melanoma)
CCCCCCCCCCCCCCCCCc1cccc(OCOCCOC)c1C(=O)O | 35.2 µM | 32.2 µM | 42.1 µM | 35.2 µM | 31.6 µM | > 77.5 µM | 38.7 µM | 36 µM | 50.8 µM | 38.9 µM | 35.8 µM | 35.9 µM | 44.1 µM | 31.7 µM | 34.5 µM | 39.1 µM | 28 µM | 35.2 µM | 36.6 µM | 32.4 µM
Cc1cn([C@@H]2C[C@@H]2CO)c(=O)[nH]c1=O | > 100 µM | > 100 µM | > 100 µM | > 100 µM | > 100 µM | > 100 µM | > 100 µM | > 100 µM | > 100 µM | > 100 µM | > 100 µM | > 100 µM | > 100 µM | > 100 µM | > 100 µM | > 100 µM |  | > 100 µM | > 100 µM | > 100 µM
O=P12N(CCN1c1ccccc1)CCN2c1ccccc1 | > 100 µM | > 100 µM | > 100 µM | > 100 µM | > 100 µM | > 100 µM | > 100 µM | > 100 µM | > 100 µM | > 100 µM | > 100 µM | > 100 µM | > 100 µM | > 100 µM | > 100 µM | > 100 µM | > 100 µM | > 100 µM | > 100 µM | > 100 µM
CCc1ccccc1N=NC(=O)NNc1ccccc1CC | 31.6 µM | 36.5 µM | 31.9 µM | 54.6 µM | 34.3 µM | 65.6 µM |  | 29.9 µM | 56.9 µM | 29.4 µM |  | 34.7 µM | 50.1 µM | 32.8 µM | 35.4 µM | 28.6 µM |  | 32.2 µM | 36.1 µM | 23 µM
Cc1cc2c(c(C=Nc3ccccc3O)c1)OC1(C=C2)Oc2ccccc2C(=O)N1C (stereo not drawn) | 37.5 µM | 56.1 µM | 70.8 µM | 40.3 µM | 47.8 µM | 46.3 µM | 40.5 µM | 29.2 µM | > 100 µM | 66.3 µM | 32.2 µM | 57.5 µM | 51 µM | 43.6 µM | 36.3 µM | 36.4 µM | 58.4 µM | 8.45 µM | 30.8 µM | 36.2 µM
O=c1ccn(CC2(CO)CCC2)c(=O)[nH]1 | > 100 µM | > 100 µM | > 100 µM | > 100 µM | > 100 µM | > 100 µM | > 100 µM | > 100 µM | > 100 µM | > 100 µM | > 100 µM |  | > 100 µM | > 100 µM | > 100 µM | > 100 µM | > 100 µM | > 100 µM | > 100 µM | > 100 µM
COc1ccc(N=Nc2c(C)c(C#N)c(=S)n(C3OC(CO)C(O)C(O)C3O)c2-c2ccccc2)cc1 (stereo not drawn) | > 100 µM | 44.5 µM | > 100 µM | > 100 µM | 97.6 µM | > 100 µM |  | > 100 µM | > 100 µM | 98.2 µM |  | 76.8 µM | 46.5 µM |  | > 100 µM | 27.8 µM | 83.3 µM | 97.3 µM | > 100 µM | 47.6 µM
Cc1cc(S(=O)(=O)Nc2n[nH]c(Nc3ccc(Cl)cc3)n2)c(S)cc1Cl | > 100 µM | > 100 µM | > 100 µM | > 100 µM | > 100 µM | > 100 µM | > 100 µM | > 100 µM | > 100 µM | > 100 µM | > 100 µM | > 100 µM | > 100 µM | > 100 µM | > 100 µM | > 100 µM | > 100 µM | > 100 µM | > 100 µM | > 100 µM
C[C@@H](c1ccccc1)n1c(N)c(-c2ccccn2)c2ccc([N+](=O)[O-])cc2c1=O | > 100 µM | 65.5 µM | > 100 µM | > 100 µM | > 100 µM | > 100 µM |  | > 100 µM | > 100 µM |  | > 100 µM |  |  | > 100 µM | > 100 µM | > 100 µM |  | > 100 µM | > 100 µM | > 100 µM
c1ccc([P+](CCSCCSCC[P+](c2ccccc2)(c2ccccc2)c2ccccc2)(c2ccccc2)c2ccccc2)cc1 | > 100 µM | > 100 µM | > 100 µM | > 100 µM | > 100 µM |  | > 100 µM | > 100 µM | > 100 µM | > 100 µM | > 100 µM | > 100 µM | > 100 µM | > 100 µM | > 100 µM | > 100 µM | > 100 µM | > 100 µM | > 100 µM | > 100 µM
COc1ccc(N=NC(=O)NC(Cc2ccccc2)C(=O)O)cc1 (stereo not drawn) | > 100 µM | > 100 µM | > 100 µM | > 100 µM | > 100 µM | > 100 µM | > 100 µM | > 100 µM | > 100 µM | > 100 µM | > 100 µM | > 100 µM | > 100 µM | > 100 µM | > 100 µM | > 100 µM |  | > 100 µM | > 100 µM | > 100 µM
O=C(NC1(c2cc3ccccc3s2)CCCCC1)C1CCC1 | > 100 µM | > 100 µM | > 100 µM | > 100 µM | > 100 µM | > 100 µM | > 100 µM | > 100 µM | > 100 µM | > 100 µM | > 100 µM | > 100 µM | > 100 µM | > 100 µM |  | > 100 µM | > 100 µM | > 100 µM | > 100 µM | > 100 µM
CC(=O)Nc1c(S(=O)(=O)c2ccccc2)c(C)c(C)n1CCN(C)C | > 100 µM | > 100 µM | > 100 µM | > 100 µM | > 100 µM | > 100 µM | > 100 µM | > 100 µM | > 100 µM |  | > 100 µM | > 100 µM | > 100 µM | > 100 µM | > 100 µM | > 100 µM | > 100 µM | > 100 µM | > 100 µM | > 100 µM
O=C(O)CN1C=C(C(=O)c2cc3ccccc3n2S(=O)(=O)c2ccccc2)CCC1 | > 100 µM | > 100 µM | > 100 µM | > 100 µM | > 100 µM | > 100 µM | > 100 µM | > 100 µM | 71.5 µM | > 100 µM | > 100 µM | > 100 µM | > 100 µM | > 100 µM | > 100 µM | 71.8 µM |  | > 100 µM | > 100 µM | > 100 µM
CC(=O)C(=[N+]=[N-])C(=O)N1CCOC1=O | > 10 µM | > 10 µM | > 10 µM | > 10 µM | > 10 µM | > 10 µM | > 10 µM | > 10 µM | > 10 µM | > 10 µM |  | > 10 µM | > 10 µM | > 10 µM | > 10 µM | > 10 µM | > 10 µM | > 10 µM | > 10 µM | > 10 µM
CNNC1=NS(=O)(=O)c2cc(C#N)c(Cl)cc2S1 | > 10 µM | > 10 µM | > 10 µM | > 10 µM | > 10 µM | > 10 µM | > 10 µM | > 10 µM | > 10 µM | > 10 µM |  | > 10 µM | > 10 µM | > 10 µM | > 10 µM | > 10 µM | > 10 µM | > 10 µM | > 10 µM | > 10 µM
O=C(CC(=O)N1N=C(N2CCCCC2)CC1c1ccccc1)Nc1ccccc1 (stereo not drawn) | > 100 µM | > 100 µM | > 100 µM | > 100 µM | > 100 µM | > 100 µM | > 100 µM | > 100 µM | > 100 µM | > 100 µM | > 100 µM | > 100 µM | > 100 µM | > 100 µM | > 100 µM | > 100 µM |  | > 100 µM | > 100 µM | > 100 µM
O=c1[nH]c(Cc2ccccc2)nc2c1sc1nc3ccccc3n12 | > 100 µM | > 100 µM | > 100 µM | > 100 µM | > 100 µM | > 100 µM | > 100 µM | > 100 µM | > 100 µM |  | > 100 µM | > 100 µM | > 100 µM | > 100 µM | > 100 µM | > 100 µM | > 100 µM | > 100 µM | > 100 µM | > 100 µM
Cc1nc(N)c(N2CCN(C(=O)O)CC2)c(=O)[nH]1 | > 100 µM | > 100 µM | > 100 µM | > 100 µM | > 100 µM | > 100 µM | > 100 µM | > 100 µM | > 100 µM | > 100 µM | > 100 µM | > 100 µM | > 100 µM | > 100 µM | > 100 µM |  |  | > 100 µM | > 100 µM | 
COC(=O)/C(C#N)=C(\Nc1ccccc1)N1CCOCC1 | > 100 µM | > 100 µM | > 100 µM | > 100 µM | > 100 µM |  | > 100 µM | > 100 µM | > 100 µM | > 100 µM | > 100 µM | > 100 µM | > 100 µM | > 100 µM | > 100 µM | > 100 µM | > 100 µM | > 100 µM | > 100 µM | 
